Data taken from US20080293699A1, “Inhibitors of thapsigargin-induced cell death” (priority 2007, published 2008).

Columns and labels:
Format in all cases: cell-based, rat
[1] = system: CSM14.1 cells; experiment: Annexin V staining viability assay (flow cytometry), thapsigargin-treated undifferentiated CSM14.1 cells; conditions: hit compounds 25 μM, TG 15 μM
Method: Undifferentiated CSM14.1 cells were cultured as for FIG. 16. The next day, DMSO (a, b) (1% final volume), 100 μM Salubrinal (c, d) or 25 μM of hit compounds (1% final DMSO) was added. After two hrs, 15 μM TG was added to all wells except a and c. The plates were returned to culture for 24 hrs, then cells were recovered by trypsinization, transferred to 1.5 ml microcentrifuge tubes, and resuspended in 0.5 mL of Annexin V-binding solution. The percentage of annexin V-negative cells was determined by flow-cytometry (y-axis). Treatments and compounds were the same as in FIG. 16.
One method we have employed, for example, for confirming protection against TG-induced killing uses fluorochrome-conjugated annexin V staining with flow-cytometry analysis to evaluate the percentage cell viability by a method that is independent of the ATP content assay.
FIGS. 16 and 17 show the results of a secondary assay for evaluating the cytoprotective activity of the compounds. In FIG. 16, undifferentiated CSM14.1 cells were cultured at 10^4 cells per well of 24-well plates (Greiner Bio One). The next day, DMSO (a, b) (1% final volume), 100 μM Salubrinal (c, d) or 25 μM of hit compounds (1% final DMSO) was added. After two hrs, 15 μM TG was added to all wells except a and c. A conventional ATP assay was performed to measure survival rate. In FIG. 17 undifferentiated CSM14.1 cells were cultured at 10^4 cells per well of 24-well plates (Greiner Bio One). The next day, DMSO (a, b) (1% final volume), 100 μM Salubrinal (c, d) or 25 μM of hit compounds (1% final DMSO) was added. After two hrs, 15 μM TG was added to all wells except a and c. […] The percentage of annexin V-negative cells was determined by flow-cytometry (y-axis), using a FACSort instrument (Beckton-Dickinson). […]
7) The percentage of annexin V-negative cells was determined by flow-cytometry (y-axis), using a FACSort analysis facility in Burnham (Beckton & Dickinson)

[2] = system: phospho-eIF2α; experiment: Immunoblotting of eIF2α phosphorylation in thapsigargin-treated CSM14.1 cells; conditions: thapsigargin-stimulated CSM14.1, listed as CID-2878746
Description: After confirming the pathway selectivity of compounds, additional downstream assays can be performed to map the specific signal transduction pathway inhibited by the compounds. In this regard, various antibody reagents are commercially available for assessing the status of the three major pathways known to be activated by ER stress: (1) PERK, (2) Ire1, and (3) ATF6 (Xu et al., J. Clinical Invest., 115:2656-2664, 2005). Immunoblotting experiments can be performed to assess the expression or phosphorylation (using phospho-specific antibodies) of marker proteins in these pathways. […] Cell lysates were prepared and analyzed by SDS-PAGE/immunoblotting using antibodies specific for phospho-c-Jun, phospho-eIF2α, phospho-p38 MAPK, and tubulin (a loading control). […] After two hrs, cell lysates were prepared, normalized for protein content, and either analyzed by SDS-PAGE/immunoblotting using anti-p38-MAPK pan-reactive antibody or phospho-specific antibody with ECL-based detection, followed by densitometry analysis of x-ray films, normalizing phosphor-p38 MAPK relative to total p38 MAPK, or analyzed using a meso-scale instrument from MSD and a procedure in which total p38 MAPK is captured on plates, and the relative amounts of phosphorylated protein were determined using phospho-specific antibody (MSD catalog #K15112D1). […]

[3] = system: ATF4; experiment: Thapsigargin-induced expression of ATF4 (immunoblotting); conditions: listed as CID-2878746

Q: For `CCN(CC)c1ccc(C2Nc3ccccc3NC3=C2C(=O)CC(c2ccccc2)C3)cc1` (stereo not drawn) [Compound 5962123, 6-(4-diethylaminophenyl)-9-phenyl-5,6,8,9,10,11-hexahydrobenzo[c][1,5]benzodiazepin-7-one], which “Protection against TG-induced cell death measured by annexin V staining” value [1] is on record?
A: confirmed

Q: What about the “Phosphorylation of eIF2alpha (Ser 51)” value [2] of the same compound?
A: not inhibited

Q: And the “Thapsigargin-induced expression of ATF4” value [3]?
A: not inhibited
